Measured values reported in article PMC6487070, “Molecular transport through primary human small intestinal monolayers by culture on a collagen scaffold with a gradient of chemical cross-linking” (Journal of Biological Engineering, 2019).
Like-named read-outs stand apart in the source and are kept apart here.

Columns and labels:
Type in all cases: in vitro ADME
[1] = tested on: P-gp; test: Bidirectional transport of digoxin across monolayers with and without zosuquidar; conditions: human, n = 3, read-out: efflux ratio Papp(B-L)/Papp(L-B)
Method: (§1) All transport assays were performed by adding LY ([…]) and the drug to the luminal or basal reservoirs of the monolayer (n = 3). Samples were collected after 3 h. LY was added to ensure that monolayer integrity remained intact throughout the assay. Additionally, TEER was measured before and after the assay to further verify that monolayer integrity remained constant throughout the assay. Monolayers with a TEER > 90 Ω cm^2 or 300 Ω cm^2 were used for the gradient cross-linked scaffold and conventional scaffold, respectively. […] Zosuquidar and Ko143 were added to inhibit digoxin transport and prazosin transport, respectively, 2.5 h after addition of the substrate. Samples were collected 30 min after inhibitor addition for a totally assay time of 3 h.
The concentration of the drug in the collected sample was determined using HPLC-triple quadrupole mass spectrometry (LC-MS/MS, PE Sciex API 3000, AB Sciex) with multiple reaction monitoring (MRM). A C-18 analytical column with a linear gradient from 100% water with 1% formic acid to 80% acetonitrile with 1% formic acid over 8 min (0.3 mL/min) was used for the separation. […] Digitoxin was used as an internal standard for digoxin samples. Doxasozin was used an internal standard for prazosin samples. All internal standards were added to samples just prior to LC-MS/MS analysis. […] Sample concentrations were quantified using the standard curve and normalized to the signal of the appropriate internal standard. The drug apparent permeability was calculated according to the following equation: Papp = (V/(A x Ci)) x (Cf/T) where V is the volume of the basal chamber (mL), A is the area of epithelial layer (cm^2), Ci is the initial concentration of the molecule (nM), Cf is the final concentration of the drug, and T is the assay time (s). The average Papp with a single standard deviation is shown (average ± SD). The efflux ratio was calculated according to the following equation: Efflux Ratio = Papp(B-L)/Papp(L-B).

[2] = molecular target: T1, BCRP (Homo sapiens, UniProt Q9UNQ0); test: Bidirectional transport of prazosin across monolayers with and without Ko143; conditions: gradient cross-linked scaffold
T1 construct: endogenous in cells; host or cells: primary human small intestinal epithelial cell monolayers on a gradient cross-linked or conventional collagen scaffold
T1 sequence (Q9UNQ0 1-655): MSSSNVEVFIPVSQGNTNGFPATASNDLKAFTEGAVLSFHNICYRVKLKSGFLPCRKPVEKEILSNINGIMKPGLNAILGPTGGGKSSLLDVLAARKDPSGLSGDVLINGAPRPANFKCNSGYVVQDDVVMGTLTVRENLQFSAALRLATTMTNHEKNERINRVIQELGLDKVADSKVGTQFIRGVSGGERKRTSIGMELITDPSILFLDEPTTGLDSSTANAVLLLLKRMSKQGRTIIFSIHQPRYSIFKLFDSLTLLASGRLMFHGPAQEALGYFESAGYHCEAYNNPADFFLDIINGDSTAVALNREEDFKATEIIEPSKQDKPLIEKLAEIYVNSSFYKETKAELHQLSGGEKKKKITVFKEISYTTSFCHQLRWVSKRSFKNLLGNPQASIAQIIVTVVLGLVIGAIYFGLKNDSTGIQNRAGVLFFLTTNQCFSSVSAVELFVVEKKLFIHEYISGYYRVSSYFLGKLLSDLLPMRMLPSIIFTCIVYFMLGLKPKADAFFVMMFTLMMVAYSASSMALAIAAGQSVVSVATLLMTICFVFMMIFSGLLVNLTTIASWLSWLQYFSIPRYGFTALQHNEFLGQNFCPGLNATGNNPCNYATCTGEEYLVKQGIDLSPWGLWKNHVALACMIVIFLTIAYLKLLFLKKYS
Method: as §1, with “Samples were collected 30 min after inhibitor addition for a totally assay time of 3 h.” left out
The concentration of the drug in the collected sample was determined using HPLC-triple quadrupole mass spectrometry (LC-MS/MS, PE Sciex API 3000, AB Sciex) with multiple reaction monitoring (MRM). […] Sample concentrations were quantified using the standard curve and normalized to the signal of the appropriate internal standard. The drug apparent permeability was calculated according to the following equation: Papp = (V/(A x Ci)) x (Cf/T) where V is the volume of the basal chamber (mL), A is the area of epithelial layer (cm^2), Ci is the initial concentration of the molecule (nM), Cf is the final concentration of the drug, and T is the assay time (s). […]

[3] = tested on: primary human small intestinal epithelial monolayers; test: Monolayer integrity: permeability of LY and fluorescein-dextran through small intestinal epithelial monolayers; conditions: monolayers on gradient cross-linked scaffold and on conventional scaffold; luminal to basal, 3 h; n = 3
Method: Neither LY nor fluorescein-dextran are transported by the intestinal epithelium. The TEER was measured using an EVOM^2 epithelial Volt/Ohm meter (World Precision Instruments, Sarasota, FL). The raw resistance measurements of the monolayers were subtracted from that of the average resistance (n = 3) of the collagen layer without cells and normalized by multiplying the cell culture area of the well to provide a TEER in units of Ω cm^2 [48]. The average TEER (n = 3) with a single standard deviation (SD) is shown (average ± SD). […] The amount of LY (ex: 428 nm, em: 520 nm) and fluorescein-dextran (ex: 490 nm, em: 520 nm) in the basal side was determined by measuring their fluorescence in a microplate reader (Spectramax M5, Molecular Devices Corporation, San Jose, CA). The luminal-to-basal apparent permeability (Papp) were calculated according to the following equation: […] The average Papp with a single standard deviation is shown (average ± SD).

Molecule: C[C@H]1O[C@@H](O[C@H]2[C@@H](O)C[C@H](O[C@H]3[C@@H](O)C[C@H](O[C@H]4CC[C@@]5(C)[C@H](CC[C@@H]6[C@@H]5C[C@@H](O)[C@]5(C)[C@@H](C7=CC(=O)OC7)CC[C@]65O)C4)O[C@@H]3C)O[C@@H]2C)C[C@H](O)[C@@H]1O [digoxin]
- efflux ratio at 3 h ([1]; conventional scaffold, no inhibitor): 2.3
- efflux ratio at 3 h ([1]; gradient cross-linked scaffold, no inhibitor): 2.7
- efflux ratio at 3 h ([1]; with zosuquidar (concentration not stated), conventional scaffold, in the presence of P-gp inhibitor zosuquidar): 1.4
- efflux ratio at 3 h ([1]; with zosuquidar (concentration not stated), gradient cross-linked scaffold, in the presence of P-gp inhibitor zosuquidar): 1.4

Molecule: COc1cc2nc(N3CCN(C(=O)c4ccco4)CC3)nc(N)c2cc1OC [prazosin]
- efflux ratio at 3 h ([2]; no inhibitor, read-out: efflux ratio Papp(B-L)/Papp(L-B)): 6.5
- efflux ratio at 3 h ([2]; with Ko143 (concentration not stated), with BCRP inhibitor Ko143, read-out: efflux ratio Papp(B-L)/Papp(L-B)): 1.7

Molecule: Lucifer yellow [LY]
- permeability through confluent, differentiated monolayers [3]: low
